Laboratory results published in patent US20070179161A1, “Pyrazolopyrimidine compounds and their use in medicine” (VERNALIS (CAMBRIDGE) LIMITED., priority 2003, published 2007).

How the values were obtained:
Type in all cases: biochemical
[1] = target: CDK-2 enzyme, complexed with cyclin A (Homo sapiens, UniProt P24941); assay: CDK2 enzyme inhibition assay (33P phosphorylation of peptide […], filter plate); settings: CDK-2/cyclin A, 0.1 mM ATP, 40 min at 30° C.
Description: (§1) The assay mixture containing the inhibitor and CDK-2 enzyme, complexed with cyclin A (0.4 U/ml) was mixed together in a microtiter plate in a final volume of 50 μl and incubated for 40 min at 30° C. The assay mixture contained 0.1 mM unlabeled ATP, 0.01 μCi/μl ^33P-γ-ATP, 0.03 mM peptide, 0.1 mg/ml BSA, 7.5 mM magnesium acetate, 50 mM HEPES-NaOH, pH 7.5. The reaction was stopped by adding 50 μl of 50 mM phosphoric acid. 90 μl of the mixture were transferred to a pre-wetted 96-well Multiscreen MAPHNOB filtration plate (Millipore) and filtered on a vacuum manifold. […] The filtration plate was dried for 10 min at 65° C., scintillant added and phosphorylated peptide quantified in a scintillation counter (Trilux, PerkinElmer)
HEPES is N-[2-Hydroxyethyl]piperazine-N′-[2-ethanesulfonic acid] BSA is bovine serum albumin.

GST-Chk1 enzyme = target: T1, GST-Chk1 enzyme (Homo sapiens, UniProt O14757); assay: Chk1 kinase inhibition assay (33P phosphorylation of Chktide, filter plate); settings: 0.01 mM ATP, 11 nM GST-Chk1, 40 minutes at 30° C.; read-out: Chk1 IC50
T1 sequence (O14757 1-476): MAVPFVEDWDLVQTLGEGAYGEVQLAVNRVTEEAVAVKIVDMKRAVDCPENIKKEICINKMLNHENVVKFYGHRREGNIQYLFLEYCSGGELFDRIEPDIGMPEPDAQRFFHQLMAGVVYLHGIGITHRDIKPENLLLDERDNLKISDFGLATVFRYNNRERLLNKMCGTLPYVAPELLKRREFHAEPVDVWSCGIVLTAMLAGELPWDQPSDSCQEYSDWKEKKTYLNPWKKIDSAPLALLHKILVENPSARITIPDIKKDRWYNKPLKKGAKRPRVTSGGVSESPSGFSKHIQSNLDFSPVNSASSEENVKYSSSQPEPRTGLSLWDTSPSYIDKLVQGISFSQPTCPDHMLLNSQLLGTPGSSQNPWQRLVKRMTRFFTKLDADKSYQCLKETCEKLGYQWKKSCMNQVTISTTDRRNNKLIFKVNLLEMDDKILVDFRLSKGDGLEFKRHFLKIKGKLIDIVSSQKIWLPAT
Description: The assay mixture containing the inhibitor and Chk1 enzyme was mixed together in a microtiter plate in a final volume of 50 μl and incubated for 40 minutes at 30° C.
The reaction was stopped by adding 50 μl of 50 mM phosphoric acid. 90 μl of the mixture was transferred to a pre-wetted 96-well Multiscreen MAPHNOB filtration plate (Millipore) and filtered on a vacuum manifold. […] The filtration plate was dried for 10 min at 65° C., scintillant added and phosphorylated peptide quantified in a scintillation counter (Trilux, PerkinElmer)

PDK1 enzyme = target: T2, PDK1 enzyme (Homo sapiens, UniProt O15530); assay: PDK1 kinase inhibition assay (33P phosphorylation of synthetic peptide, filter plate); settings: 0.01 mM ATP, 60 min at 30° C.; read-out: PDK1 IC50
T2 sequence (O15530 1-556): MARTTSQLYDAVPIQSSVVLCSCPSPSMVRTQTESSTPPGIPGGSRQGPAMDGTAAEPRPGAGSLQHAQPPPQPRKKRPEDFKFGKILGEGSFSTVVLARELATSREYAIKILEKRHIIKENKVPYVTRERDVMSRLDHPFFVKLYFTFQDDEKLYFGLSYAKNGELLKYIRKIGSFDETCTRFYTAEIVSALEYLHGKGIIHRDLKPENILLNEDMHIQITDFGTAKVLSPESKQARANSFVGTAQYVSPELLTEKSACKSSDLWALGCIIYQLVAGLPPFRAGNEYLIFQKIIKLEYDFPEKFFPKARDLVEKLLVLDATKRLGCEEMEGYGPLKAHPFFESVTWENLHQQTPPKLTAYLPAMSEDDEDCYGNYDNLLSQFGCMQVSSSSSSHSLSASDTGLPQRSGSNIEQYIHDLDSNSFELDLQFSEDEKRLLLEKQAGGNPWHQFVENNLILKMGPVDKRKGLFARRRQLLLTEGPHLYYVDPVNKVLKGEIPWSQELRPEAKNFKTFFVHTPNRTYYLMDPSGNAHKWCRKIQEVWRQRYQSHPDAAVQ
Description: as §1, with “and PDK1 enzyme” for “and CDK-2 enzyme, complexed with cyclin A (0.4 U/ml)”, “for 60” for “for 40”, “contained 0.01” for “contained 0.1”, “^33P-γ-ATP, 0.075” for “^33P-γ-ATP, 0.03”, “acetate, 0.05M Tris.HCl,” for “acetate, 50 mM HEPES-NaOH,”, “pH 7.5, 0.5% 2-mercaptoethanol.” for “pH 7.5.”

Question: For O=S(=O)(Nc1nccs1)c1ccc(Nc2cc(Cl)nc3ccnn23)cc1 [Example 11], which IC50 [1] is on record?
Answer: The IC50 was 1.31 µM.

Question: What about the IC50 (GST-Chk1 enzyme) of the same molecule?
Answer: The IC50 was > 200 µM.

Question: And the IC50 (PDK1 enzyme)?
Answer: Its IC50 is > 200 µM.

Question: CC(C)c1cnn2c(Nc3ccc(S(=O)(=O)N(C)C)cc3)cc(CN3CCC(N)CC3)nc12 [Example 157] was tested. Which IC50 [1] did it give?
Answer: The IC50 was 0.037 µM.

Question: And the IC50 (GST-Chk1 enzyme)?
Answer: The IC50 was 8 µM.

Question: And the IC50 (PDK1 enzyme)?
Answer: The IC50 was 72 µM.

Question: With Cc1cccc(-c2cc(Nc3ccc(S(=O)(=O)N4CCOCC4)cc3)n3nccc3n2)c1 [Example 13] as the molecule, how does the IC50 [1] read?
Answer: The IC50 was 1.76 µM.

Question: What about the IC50 (GST-Chk1 enzyme) of the same molecule?
Answer: Its IC50 is > 200 µM.

Question: And the IC50 (PDK1 enzyme)?
Answer: The IC50 was > 200 µM.

Question: With Cc1cccc(-c2cc(NCc3ccncc3)n3nccc3n2)c1 [Example 7] as the molecule, how does the IC50 [1] read?
Answer: The IC50 was 7.19 µM.

Question: And the IC50 (GST-Chk1 enzyme)?
Answer: Its IC50 is > 200 µM.

Question: And the IC50 (PDK1 enzyme)?
Answer: Its IC50 is > 200 µM.

Question: How did the IC50 [1] turn out when CC(C)c1cnn2c(Nc3ccc(S(=O)(=O)N(C)C)cc3)cc(OC3CCN(C)C3)nc12 (stereo not drawn) [Example 70] was run?
Answer: Its IC50 is 0.32 µM.

Question: And the IC50 (GST-Chk1 enzyme)?
Answer: Its IC50 is 79.9 µM.

Question: What about the IC50 (PDK1 enzyme) of the same molecule?
Answer: The IC50 was > 200 µM.

Question: Which results are given for CNS(=O)(=O)c1ccc(Nc2cc(N[C@H]3CC[C@H](N)CC3)nc3c(C(C)C)cnn23)cc1 [Example 67]?
Answer: IC50 [1]: 0.03 µM; IC50 (GST-Chk1 enzyme): > 200 µM; IC50 (PDK1 enzyme): 4.64 µM

Question: CCNc1cc(Nc2ccc(S(C)(=O)=O)cc2)n2ncc(C(C)C)c2n1 [Example 56] was tested. Which IC50 [1] did it give?
Answer: Its IC50 is 0.85 µM.

Question: What about the IC50 (GST-Chk1 enzyme) of the same molecule?
Answer: The IC50 was > 200 µM.

Question: And the IC50 (PDK1 enzyme)?
Answer: The IC50 was 45.3 µM.

Question: Which IC50 [1] does the source give for CC(C)c1cnn2c(Nc3ccc(S(=O)(=O)N(C)C)cc3)cc(NCC(C)(C)CN(C)C)nc12 [Example 106] here?
Answer: The IC50 was 3.34 µM.

Question: And the IC50 (GST-Chk1 enzyme)?
Answer: The IC50 was 18.2 µM.

Question: And the IC50 (PDK1 enzyme)?
Answer: Its IC50 is 14.4 µM.

Question: CC(C)c1cnn2c(Nc3ccc(S(=O)(=O)N(C)C)cc3)cc(N3CCN(CC4CCN(C)CC4)CC3)nc12 [Example 109] was tested. Which IC50 [1] did it give?
Answer: Its IC50 is 10.3 µM.

Question: What about the IC50 (GST-Chk1 enzyme) of the same molecule?
Answer: Its IC50 is 15.2 µM.

Question: What about the IC50 (PDK1 enzyme) of the same molecule?
Answer: The IC50 was > 200 µM.

Question: Which IC50 [1] does the source give for CC(C)c1cnn2c(Nc3ccc(S(=O)(=O)N(C)C)cc3)cc(C(=O)NCCN)nc12 [Example 118] here?
Answer: The IC50 was 6.76 µM.

Question: What about the IC50 (GST-Chk1 enzyme) of the same molecule?
Answer: The IC50 was 36.8 µM.

Question: What about the IC50 (PDK1 enzyme) of the same molecule?
Answer: The IC50 was > 200 µM.

Question: How did the IC50 [1] turn out when CC(C)c1cnn2c(Nc3ccc(S(C)(=O)=O)nc3)cc(Cl)nc12 [Example 84] was run?
Answer: The IC50 was 0.298 µM.

Question: And the IC50 (GST-Chk1 enzyme)?
Answer: The IC50 was > 200 µM.

Question: What about the IC50 (PDK1 enzyme) of the same molecule?
Answer: The IC50 was > 200 µM.

Question: How did the IC50 [1] turn out when CC(C)c1cnn2c(Nc3ccc(S(C)(=O)=O)cc3)cc(OCCN(C)C)nc12 [Example 53] was run?
Answer: Its IC50 is 8.41 µM.

Question: What about the IC50 (GST-Chk1 enzyme) of the same molecule?
Answer: Its IC50 is > 200 µM.

Question: And the IC50 (PDK1 enzyme)?
Answer: Its IC50 is > 200 µM.

Question: For CC(C)c1cnn2c(Nc3ccc(S(=O)(=O)N4CCCC4)cc3)cc(N[C@H]3CC[C@H](N)CC3)nc12 [Example 62], which IC50 [1] is on record?
Answer: Its IC50 is 0.024 µM.

Question: What about the IC50 (GST-Chk1 enzyme) of the same molecule?
Answer: Its IC50 is 3.24 µM.

Question: What about the IC50 (PDK1 enzyme) of the same molecule?
Answer: The IC50 was 1.2 µM.

Question: Which IC50 [1] does the source give for CC(C)c1cnn2c(Nc3ccc(S(=O)(=O)N(C)C)cc3)cc(N3CCC[C@H]3CN)nc12 [Example 97] here?
Answer: Its IC50 is 7.81 µM.

Question: What about the IC50 (GST-Chk1 enzyme) of the same molecule?
Answer: Its IC50 is 4.75 µM.

Question: And the IC50 (PDK1 enzyme)?
Answer: The IC50 was > 200 µM.

Question: What does the source list for NC(=O)c1ccc(Nc2cc(N[C@H]3CC[C@@H](N)CC3)nc3c(Br)cnn23)cc1 [Example 165]?
Answer: IC50 [1]: 0.026 µM; IC50 (GST-Chk1 enzyme): 0.62 µM; IC50 (PDK1 enzyme): 1.2 µM

Question: For CN(C)S(=O)(=O)c1ccc(Nc2cc(Cl)nc3c(-c4ccsc4)cnn23)cc1 [Example 156], which IC50 [1] is on record?
Answer: Its IC50 is 24.9 µM.

Question: And the IC50 (GST-Chk1 enzyme)?
Answer: Its IC50 is > 200 µM.

Question: And the IC50 (PDK1 enzyme)?
Answer: The IC50 was 10 µM.

Question: With CNS(=O)(=O)c1ccc(Nc2cc(N[C@H]3CC[C@H](N)CC3)nc3c(C(C)C)cnn23)cc1 [Example 61] as the molecule, how does the IC50 [1] read?
Answer: Its IC50 is 0.032 µM.

Question: What about the IC50 (GST-Chk1 enzyme) of the same molecule?
Answer: The IC50 was 6.63 µM.

Question: What about the IC50 (PDK1 enzyme) of the same molecule?
Answer: Its IC50 is 11 µM.

Question: For O=S(=O)(c1ccc(Nc2cc(Cl)nc3ccnn23)cc1)N1CCOCC1 [Example 9], which IC50 [1] is on record?
Answer: Its IC50 is 0.99 µM.

Question: What about the IC50 (GST-Chk1 enzyme) of the same molecule?
Answer: Its IC50 is > 200 µM.

Question: And the IC50 (PDK1 enzyme)?
Answer: Its IC50 is > 200 µM.

Question: How did the IC50 [1] turn out when CC1(C)CC(Nc2cc(Nc3ccc(S(=O)(=O)Nc4nccs4)cc3)n3ncc(Br)c3n2)CC(C)(C)N1 [Example 166] was run?
Answer: The IC50 was 16.9 µM.

Question: And the IC50 (GST-Chk1 enzyme)?
Answer: Its IC50 is 17 µM.

Question: What about the IC50 (PDK1 enzyme) of the same molecule?
Answer: The IC50 was 2.15 µM.
